The results in this text go back to patent US9447086B2, “6-amino acid heteroaryldihydropyrimidines for the treatment and prophylaxis of hepatitis B virus infection” (priority 2012, dated 2016).

Data set [1] in a line: Cytotoxicity (CC50) in HepDE19 cells, CCK-8 cell viability. The format is cell-based. Particulars: human, HepDE19 cells; read-out: CC50. The text has this:
HepG2.2.15 and HepDE19 are stably-transfected cell lines containing the HBV genome. Both cell lines are derived from the hepatoblastoma cell line Hep G2 (American Type Culture Collection, ATCC® HB-8065™) by the published procedures described in references: MA Selles et al. Proc. Natl. Acad. Sci. USA 1987, 84, 1005-1009 and H Guo et al. Journal of Virology 2007, 81, 12472-12484, respectively. Both cell lines were maintained in Dulbecco's modified Eagle's medium (DMEM)-F12 medium supplemented with 10% fetal bovine serum, 100 U/mL penicillin, 100 μg/mL streptomycin, and 0.5 mg/mL of G418.
Five days after treatment, cell viability was measured by addition of 20 μL of CCK-8 reagent. Two hours after incubation at 37° C., the absorbance at wavelengths of 450 nm and 630 nm (OD450 and OD630) was recorded by a plate reader.

Data set [2] in a line: Metabolic stability study in human microsome. The format is in vitro ADME. The method in brief:
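Depletion of 1 μM compound followed by LC-MS/MS over 0–30 min (0, 3, 6, 9, 15, 30 min) after methanol quench. Incubations at 37 °C, pH 7.4 phosphate buffer, 0.5 mg/mL microsomal protein, with NADPH (1 mM) or a regenerating system as cofactor; controls lacked cofactor.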

The test system of data set [3] is HBV. The data set is described as follows: Selectivity index (CC50 value/EC50 value). The data set is classed as cell-based, Hepatitis B virus. The text has this:
Based on FDA guidance, in order to support clinical testing in humans, the assessment of acceptable risk-benefit has to be achieved by providing clear evidence of in vitro antiviral activity (EC50) and cytotoxicity (CC50). It is important to establish that an investigational product has antiviral activity at concentrations that can be achieved in vivo without inducing toxic effects to cells. Furthermore, in a cell culture model, apparent antiviral activity of an investigational product can be the result of host cell death after exposure to the product. The relative effectiveness of the compound in inhibiting viral replication compared to inducing cell death is defined as the selectivity index (CC50 value/EC50 value). It is desirable to have a high selectivity index giving maximum antiviral activity with minimal cell toxicity.
The relative effectiveness of the compound in inhibiting viral replication compared to inducing cell death is defined as the selectivity index (CC50 value/EC50 value). It is desirable to have a high selectivity index giving maximum antiviral activity with minimal cell toxicity.

Data set [4] can be described thus: Lyophilisation solubility assay (Lysa). The format is physicochemical. Particulars: phosphate buffer, pH 6.5, aqueous buffer, thermodynamic from solid. In a few lines:
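Solubility in μg/mL is read by UV or HPLC-UV on filtrate, neat and diluted 1/10. Before filtration, the residue from evaporated 10 mM DMSO stock was taken up in pH 6.5 0.05 M phosphate buffer, then stirred 1 h, shaken 2 h and stood overnight, in duplicate.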

For data set [5], the system named is HBV. Kind of data set: Anti-HBV activity in vitro in HepG2.2.15 cells (extracellular HBV DNA by qPCR). Particulars: Hepatitis B virus; HepG2.2.15 cells; in-house data; read-out: EC50. The data set is classed as cell-based, Hepatitis B virus. In a few lines: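 Supernatant HBV DNA was measured by qPCR after viral DNA extraction. Samples came from 5-day cultures of HepG2.2.15 cells, an HBV-genome-transfected HepG2 line, exposed to half-log compound dilutions in medium containing 0.5% DMSO.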
A general note: In qPCR the cycle at which signal appears reflects the starting amount.

Values after ≈ are worked out from the molar mass of the structure shown.

One may read the CC50 as the concentration that lowers cell viability or growth by half. The thermodynamic solubility is solubility found after equilibrating the solid with the medium. In general, EC50 refers to the concentration giving half of the maximal effect. For the molecule `CCOC(=O)C1=C(CN2CCOC[C@H]2C(=O)O)NC(c2nccs2)=N[C@H]1c1ccc(Br)c(F)c1` [Example 52, (S)-4-[(S)-6-(4-Bromo-3-fluoro-phenyl)-5-ethoxycarbonyl-2-thiazol-2-yl-3,6-dihydro-pyrimidin-4-ylmethyl]-morpholine-3-carboxylic acid], the half-maximal cytotoxic concentration (CC50) at 5 days in data set [1] amounted to 14000 nM. In addition, the “Human Hepatic Clearance” value in data set [2] is on record as 4.03 mL/min/kg. For the same molecule, the “Selectivity index (CC50/EC50)” value in the data set on HBV [3] worked out at 4693. This molecule returned a solubility (thermodynamic) in data set [4] of over 665 µg/mL. In addition, the EC50 with HBV [5] is 3 nM.
Take `COC(=O)C1=C(CN2CC(F)(F)C[C@H]2C(=O)O)NC(c2ncoc2C)=N[C@H]1c1ccc(F)cc1Cl` [Example 102, (R)-6-((5)-2-Carboxy-4,4-difluoro-pyrrolidin-1-ylmethyl)-4-(2-chloro-4-fluoro-phenyl)-2-(5-methyl-oxazol-4-yl)-1,4-dihydro-pyrimidine-5-carboxylic acid methyl ester]: the CC50 at 5 days in data set [1] is 23000 nM. The “Human Hepatic Clearance” value in data set [2] worked out at 0.97 mL/min/kg. In addition, the “Selectivity index (CC50/EC50)” value in the data set on HBV [3] stood at 2599. Besides, the thermodynamic solubility in data set [4] was over 635 µg/mL. In the data set with HBV [5], the EC50 came to 9 nM.
As for `CCOC(=O)C1=C(CN2CCO[C@H](C)[C@H]2C(=O)O)NC(c2nccs2)=N[C@H]1c1ccccc1Cl` [Example 117, (2R,3S)-4-[(R)-6-(2-Chloro-phenyl)-5-ethoxycarbonyl-2-thiazol-2-yl-3,6-dihydro-pyrimidin-4-ylmethyl]-2-methyl-morpholine-3-carboxylic acid], in data set [1], the CC50 at 5 days is over 100000 nM. For the same molecule, the “Human Hepatic Clearance” value in data set [2] was determined as 0 mL/min/kg. Also, in the data set with HBV [3], the “Selectivity index (CC50/EC50)” value stood at 66667. This molecule also had a solubility (thermodynamic) in data set [4] of over 628 µg/mL. Moreover, the EC50 in the data set on HBV [5] worked out at 1.5 nM.
The corresponding values for `CCOC(=O)C1=C(CN2CCOC[C@H]2C(=O)O)NC(c2nccs2)=N[C@H]1c1ccc(Cl)c(F)c1` [Example 83, (S)-4-[(S)-6-(4-Chloro-3-fluoro-phenyl)-5-ethoxycarbonyl-2-thiazol-2-yl-3,6-dihydro-pyrimidin-4-ylmethyl]-morpholine-3-carboxylic acid] are 25000 nM, 1.77 mL/min/kg, 16440, over 652 µg/mL and 1.5 nM.
The corresponding values for `CCOC(=O)C1=C(CN2CC(F)(F)C[C@H]2C(=O)O)NC(c2nccs2)=N[C@H]1c1ccc(Br)cc1` [Example 130, (2S)-1-[[(4S)-4-(4-Bromophenyl)-5-ethoxycarbonyl-2-(1,3-thiazol-2-yl)-1,4-dihydropyrimidin-6-yl]methyl]-4,4-difluoropyrrolidine-2-carboxylic acid] are 17000 nM, 3.92 mL/min/kg, 2833, over 625 µg/mL and 6 nM.
For `CCOC(=O)C1=C(CN2CC(F)(F)CC[C@H]2C(=O)O)NC(c2nccs2)=N[C@H]1c1ccc(F)cc1Br` [Example 107, (R)-4-(2-Bromo-4-fluoro-phenyl)-6-((S)-2-carboxy-5,5-difluoro-piperidin-1-ylmethyl)-2-thiazol-2-yl-1,4-dihydro-pyrimidine-5-carboxylic acid ethyl ester] the same measures were 24000 nM, 1.89 mL/min/kg, 16000, 510 µg/mL (≈ 868 µM) and 1.5 nM.
Turning to `CC(C)OC(=O)C1=C(CN2CCOC[C@H]2C(=O)O)NC(c2nccs2)=N[C@H]1c1cccc(F)c1Cl` [Example 101, (S)-4-[(R)-6-(2-Chloro-3-fluoro-phenyl)-5-isopropoxycarbonyl-2-thiazol-2-yl-3,6-dihydro-pyrimidin-4-ylmethyl]-morpholine-3-carboxylic acid], in data set [1], the 50% cytotoxic concentration (CC50) at 5 days was determined as 91000 nM. In addition, the “Human Hepatic Clearance” value in data set [2] is listed as 4.18 mL/min/kg. Further, in the data set on HBV [3], the “Selectivity index (CC50/EC50)” value was 6741. This molecule also showed a solubility (thermodynamic) in data set [4] of over 571 µg/mL. Moreover, in the data set on HBV [5], the concentration giving a half-maximal response (EC50) is 14 nM.
The corresponding values for `COC(=O)C1=C(CN2CC(F)(F)C[C@H]2C(=O)O)NC(c2nccs2)=N[C@H]1c1ccc(Cl)cc1Cl` [Example 85, (R)-6-((S)-2-Carboxy-4,4-difluoro-pyrrolidin-1-ylmethyl)-4-(2,4-dichloro-phenyl)-2-thiazol-2-yl-1,4-dihydro-pyrimidine-5-carboxylic acid methyl ester] are 66000 nM, 6.91 mL/min/kg, 10694, over 599 µg/mL and 6.2 nM.
The corresponding values for `COC(=O)C1=C(CN2CCOC[C@H]2C(=O)O)NC(c2nccs2)=N[C@H]1c1ccccc1Br` [Example 71, (S)-4-[(R)-6-(2-Bromo-phenyl)-5-methoxycarbonyl-2-thiazol-2-yl-3,6-dihydro-pyrimidin-4-ylmethyl]-morpholine-3-carboxylic acid] are over 100000 nM, 2.81 mL/min/kg, over 20833, over 642 µg/mL and 4.8 nM.
The corresponding values for `COC(=O)C1=C(CN2CCOC[C@H]2C(=O)O)NC(c2nccs2)=N[C@H]1c1ccc(Br)cc1F` [Example 94, (S)-4-[(R)-6-(4-Bromo-2-fluoro-phenyl)-5-methoxycarbonyl-2-thiazol-2-yl-3,6-dihydro-pyrimidin-4-ylmethyl]-morpholine-3-carboxylic acid] are 92000 nM, 0.61 mL/min/kg, 4600, over 677 µg/mL and 20 nM.
As to `COC(=O)C1=C(CN2CC(F)(F)C[C@H]2C(=O)O)NC(c2nc(C3CC3)cs2)=N[C@H]1c1ccc(F)cc1Cl` [Example 10, (R)-6-((S)-2-Carboxy-4,4-difluoro-pyrrolidin-1-ylmethyl)-4-(2-chloro-4-fluoro-phenyl)-2-(4-cyclopropyl-thiazol-2-yl)-1,4-dihydro-pyrimidine-5-carboxylic acid methyl ester], the CC50 at 5 days in data set [1] amounted to 39000 nM. Further, the “Human Hepatic Clearance” value in data set [2] came to 8.76 mL/min/kg. The “Selectivity index (CC50/EC50)” value with HBV [3] amounted to 5342. Moreover, the solubility (thermodynamic) in data set [4] was 246 µg/mL (≈ 443 µM). The half-maximal effective concentration (EC50) in the data set on HBV [5] was found to be 7.3 nM.
Regarding `CCOC(=O)C1=C(CN2CCOC[C@H]2C(=O)O)NC(c2nccs2)=N[C@H]1c1ccccc1Br` [Example 127, (S)-4-(((R)-6-(2-Bromophenyl)-5-(ethoxycarbonyl)-2-(thiazol-2-yl)-3,6-dihydropyrimidin-4-yl)methyl)morpholine-3 carboxylic acid], the half-maximal cytotoxic concentration (CC50) at 5 days in data set [1] was over 100000 nM. Further, in data set [2], the “Human Hepatic Clearance” value turned out to be 2.44 mL/min/kg. In addition, the “Selectivity index (CC50/EC50)” value in the data set with HBV [3] is over 14925. In data set [4], this molecule had a solubility (thermodynamic) of over 672 µg/mL. The 50% effective concentration (EC50) in the data set on HBV [5] stood at 6.7 nM.
As for `COC(=O)C1=C(CN2CCOC[C@H]2C(=O)O)NC(c2nc(C3CC3)cs2)=N[C@H]1c1ccc(F)cc1Cl` [Example 87, (3S)-4-[[(4R)-4-(2-Chloro-4-fluoro-phenyl)-2-(4-cyclopropylthiazol-2-yl)-5-methoxycarbonyl-1,4-dihydropyrimidin-6-yl]methyl]morpholine-3-carboxylic acid], in data set [1], the CC50 at 5 days came to 100000 nM. Also, in data set [2], the “Human Hepatic Clearance” value amounted to 6.86 mL/min/kg. The “Selectivity index (CC50/EC50)” value in the data set on HBV [3] is over 4545. In data set [4], this molecule came in with a solubility (thermodynamic) of over 600 µg/mL. In addition, the EC50 with HBV [5] was determined as 22 nM.
Regarding `[2H]C1([2H])[C@@H](C(=O)O)N(CC2=C(C(=O)OC)[C@H](c3ccc(F)cc3Cl)N=C(c3nccs3)N2)CC1(F)F` [Example 19, (R)-6-((S)-2-Carboxy-[3,3-^2H2]-4,4-difluoro-pyrrolidin-1-ylmethyl)-4-(2-chloro-4-fluoro-phenyl)-2-thiazol-2-yl-1,4-dihydro-pyrimidine-5-carboxylic acid methyl ester], the 50% cytotoxic concentration (CC50) at 5 days in data set [1] is 89000 nM. Further, in data set [2], the “Human Hepatic Clearance” value stood at 3.65 mL/min/kg. In the data set on HBV [3], the “Selectivity index (CC50/EC50)” value is 15614. For the same molecule, the solubility (thermodynamic) in data set [4] was over 654 µg/mL. In addition, the EC50 with HBV [5] was found to be 5.7 nM.
